Here are results for 14 molecules from ChEMBL document CHEMBL1128455, “Ribose-modified adenosine analogues as potential partial agonists for the adenosine receptor” (J Med Chem, 1995).

The target of one assay is Adenosine receptor A2a (Rattus norvegicus, UniProt P30543). Description: Binding affinity against Adenosine A2A receptor by using [3H]CGS-21680 as radioligand.
The species entered for another assay is Rattus norvegicus. Kind of assay: GTP shift was determined in rat. The class given is functional.
For assay [1], the target named is T1, Adenosine receptor A1 (Rattus norvegicus, UniProt P25099).
T1 sequence (P25099 whole entry): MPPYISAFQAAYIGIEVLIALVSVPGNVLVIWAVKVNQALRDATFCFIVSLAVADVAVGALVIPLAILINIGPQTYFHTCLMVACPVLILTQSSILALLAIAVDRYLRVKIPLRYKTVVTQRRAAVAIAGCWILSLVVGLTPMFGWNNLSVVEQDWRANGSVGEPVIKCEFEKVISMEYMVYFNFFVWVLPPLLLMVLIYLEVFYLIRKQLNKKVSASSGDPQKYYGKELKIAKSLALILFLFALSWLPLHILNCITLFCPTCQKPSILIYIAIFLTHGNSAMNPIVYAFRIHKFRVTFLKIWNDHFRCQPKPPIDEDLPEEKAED
Description: Affinity for the Adenosine A1 receptor in the absence of GTP (A1-GTP) by using [3H]DPCPX as radioligand

Assay [2] has as its target T1, Adenosine receptor A1. The source holds these as a separate data set.
Description: Affinity for the Adenosine A1 receptor in the presence of GTP (A1+GTP) by using [3H]-DPCPX as radioligand

Sequence of Adenosine receptor A2a (P30543 whole entry): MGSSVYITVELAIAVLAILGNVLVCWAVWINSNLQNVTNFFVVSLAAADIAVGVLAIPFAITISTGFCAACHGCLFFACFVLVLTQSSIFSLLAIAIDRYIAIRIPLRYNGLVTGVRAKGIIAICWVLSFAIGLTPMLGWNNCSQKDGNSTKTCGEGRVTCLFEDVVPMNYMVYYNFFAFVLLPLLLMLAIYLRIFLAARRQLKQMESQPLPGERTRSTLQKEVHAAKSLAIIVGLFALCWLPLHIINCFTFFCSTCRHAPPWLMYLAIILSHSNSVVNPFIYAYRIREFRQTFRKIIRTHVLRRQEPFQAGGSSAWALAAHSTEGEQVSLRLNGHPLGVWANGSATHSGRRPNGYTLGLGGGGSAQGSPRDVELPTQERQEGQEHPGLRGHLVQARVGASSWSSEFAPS

In the case of `C[C@H](Cc1ccccc1)Nc1ncnc2c1ncn2C1CC(O)C(CO)O1` (stereo partly specified), at Adenosine receptor A2a, the “% radioligand bound” value turned out to be 86%. Besides, the GTP shift in the assay filed under Rattus norvegicus is 1.7. Besides, the figures for the Ki at Adenosine receptor A1 [1] and on Adenosine receptor A1 [2] were 8.45 µM and 14.4 µM, respectively.

`C[C@@H](Cc1ccccc1)Nc1ncnc2c1ncn2C1CC(O)C(CO)O1` (stereo partly specified): at Adenosine receptor A2a, the “% radioligand bound” value worked out at 91%.

`C[C@H]1OC(n2cnc3c(NC4CCCC4)ncnc32)[C@H](O)[C@@H]1O` (stereo partly specified): the inhibition constant (Ki) – broadly, a measure of affinity in units of concentration, obtained from inhibition or displacement – is 10.1 µM on Adenosine receptor A2a, 0.07 µM at Adenosine receptor A1 [1] and 0.45 µM at Adenosine receptor A1 [2]. The GTP shift in the assay filed under Rattus norvegicus was 6.4.

With `OC[C@H]1O[C@@H](n2cnc3c(NC4CCCCC4)ncnc32)C[C@@H]1O`, the “% radioligand bound” value on Adenosine receptor A2a is given as 90%. Moreover, the GTP shift in the assay listed under Rattus norvegicus was found to be 2.6. The Ki on Adenosine receptor A1 [1] worked out at 8.94 µM; at Adenosine receptor A1 [2] it was 22.8 µM.

Take `OC[C@H]1O[C@@H](n2cnc3c(NC4CCCC4)ncnc32)C[C@@H]1O`: on Adenosine receptor A2a, the “% radioligand bound” value is 88%. For the same molecule, the GTP shift in the assay filed under Rattus norvegicus came to 4.1. The results for the Ki at Adenosine receptor A1 [1] and on Adenosine receptor A1 [2] were 1.87 µM and 7.6 µM, respectively.

With `C[C@H](Cc1ccccc1)Nc1ncnc2c1ncn2[C@@H]1O[C@H](CO)C[C@H]1O`, the Ki turned out to be 7.36 µM on Adenosine receptor A2a, 0.35 µM at Adenosine receptor A1 [1] and 1.01 µM on Adenosine receptor A1 [2]. The GTP shift in the assay listed under Rattus norvegicus was found to be 2.9.

In the case of `OC[C@@H]1C[C@@H](O)[C@H](n2cnc3c(NC4CCCC4)ncnc32)O1`, the Ki was determined as 18.6 µM on Adenosine receptor A2a, 0.11 µM at Adenosine receptor A1 [1] and 0.47 µM at Adenosine receptor A1 [2]. In addition, the GTP shift in the assay listed under Rattus norvegicus is on record as 4.3.

With `C[C@@H](Cc1ccccc1)Nc1ncnc2c1ncn2[C@@H]1O[C@H](CO)C[C@H]1O`, the Ki at Adenosine receptor A2a is 57.2 µM; at Adenosine receptor A1 [1], 8.26 µM; on Adenosine receptor A1 [2], 17.5 µM. In addition, the GTP shift in the assay filed under Rattus norvegicus was 2.1.

Consider `OC[C@@H]1C[C@@H](O)[C@H](n2cnc3c(NC4CCCCC4)ncnc32)O1`, for which the inhibition constant Ki was 22.1 µM on Adenosine receptor A2a, 0.31 µM at Adenosine receptor A1 [1] and 1.26 µM on Adenosine receptor A1 [2]. Besides, the GTP shift in the assay filed under Rattus norvegicus stood at 4.1.

Consider `C[C@H](Cc1ccccc1)Nc1ncnc2c1ncn2C1O[C@H](C)[C@@H](O)[C@H]1O` (stereo partly specified), for which the Ki came out at 3.67 µM on Adenosine receptor A2a, 0.3 µM on Adenosine receptor A1 [1] and 1.07 µM on Adenosine receptor A1 [2]. Besides, the GTP shift in the assay listed under Rattus norvegicus is reported as 3.6.

Turning to `Cn1cnc2c(N)ncnc21`, the Ki came out at 8.6 µM at Adenosine receptor A2a, 12.5 µM on Adenosine receptor A1 [1] and 14.7 µM at Adenosine receptor A1 [2]. The GTP shift in the assay filed under Rattus norvegicus amounted to 1.2.

For the molecule `C[C@H]1O[C@@H](n2cnc3c(N)ncnc32)[C@H](O)[C@@H]1O` [5'-Deoxyadenosine], the GTP shift in the assay listed under Rattus norvegicus is 6.6. Moreover, the inhibitory constant (Ki) at Adenosine receptor A1 [1] turned out to be 1.82 µM; on Adenosine receptor A1 [2] it was 12.1 µM.

Regarding `Nc1ncnc2c1ncn2[C@@H]1O[C@H](CO)C[C@H]1O` [CORDYCEPIN], the GTP shift in the assay filed under Rattus norvegicus worked out at 2.1.

In the case of `OC[C@H]1O[C@@H](n2cnc3c(NC4CCCC4)ncnc32)[C@H](O)[C@@H]1O` [N6-CYCLOPENTYLADENOSINE], at Adenosine receptor A2a, the Ki came to 0.58 µM.
